Consider seven compounds from patent US20260183274A1, “PDK1 REGULATORY COMPOUND AND COMPOSITION CONTAINING THE SAME” (PROVIBIO CO., LTD., priority 2024, published 2026).

Assay type in all cases: cell-based
Series [1] deals with Human Bladder cancer cell, T24. Nature of the series: Relative cell viability CCK-8, T24. Particulars: Homo sapiens, 48 h. On the procedure:
(§1) Human-derived breast cancer cell line MCF-7, human-derived lung cancer cell line A549, human-derived colorectal cancer cell line HCT-116, human pancreatic cancer cell line AsPC-1, glioblastoma cell line A172, and melanoma cell line Malme-3M were obtained from the Korean Cell Bank. gastric cancer cell line SNU-719, and bladder cancer cell line T24 were cultured in RPMI-1640 medium containing 10% FBS.
(§2) Following stabilization, the cells were harvested using Trypsin-EDTA treatment, centrifuged at 1,200 rpm for 3 minutes, the supernatant was removed, and the cells were resuspended in the same medium. They were then seeded into a 96-well plate (Costar 96-well cell culture plate, Corning) at 100 μL per well, and the conditions were adjusted as indicated in Table 5.
(§3) The cells were cultured in a 5% CO2 incubator at 37° C. for 24 hours, and after stabilization of the cells, each plate was washed with 200 μL of PBS per well and treated with 50 μL of culture medium per well.
(§4) After that, 10 μL of CCK-8 was added to each well, and the plate was incubated again at 37° C. in a 5% CO2 incubator for 2 hours.
(§5) In other words, when the survival rate of untreated cells (DMSO) is set at 100%, the relative cell survival rate in each group treated with the drug at different concentrations is indicated.

The test system of series [2] is T cells isolated from mouse spleens. Nature of the series: T cell proliferation inhibition (CFSE flow cytometry, anti-CD3/anti-CD28 stimulation). Particulars: mouse spleen T cells, 3 days; for inhibition at 0.01 µM / inhibition at 0.1 µM / inhibition at 1 µM / inhibition at 10 µM / inhibition at 30 µM / inhibition at 50 µM: Mus musculus, T-cell, 72 h, read-out: Proliferation inhibition rate (%). In short, it runs like this: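 Proliferation inhibition (%) came from flow cytometry of CFSE dilution after 3 days' culture at 37 °C with compound (10 nM, 100 nM, 1, 10, 30, 50 μM; triplicate wells). Cells were magnetically purified T cells from C57BL/6 mouse spleens, 2×10^5 per well, stimulated with 0.5 μg/mL each anti-CD3 and anti-CD28.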
(A flow cytometer gives signals particle by particle.)

The test system of series [3] is Human B Lymphocyte cell line, SU-DHL-8. Put plainly: Relative cell viability CCK-8, SU-DHL-8. Particulars: for viability at 1 µM / viability at 10 µM / viability at 30 µM / viability at 50 µM: Homo sapiens, SU-DHL-8, 48 h; for viability at 1 µM: read-out: Relative cell viability (%), SU-DHL-8, 1 μM; for viability at 10 µM: read-out: Relative cell viability (%), SU-DHL-8, 10 μM; for viability at 30 µM: read-out: Relative cell viability (%), SU-DHL-8, 30 μM; for viability at 50 µM: read-out: Relative cell viability (%), SU-DHL-8, 50 μM. The essentials: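 Cells grown in RPMI-1640 with 10% FBS, treated with compound at several concentrations, then given CCK-8 for 4 h at 37° C. Viability expressed as percent of DMSO-treated cells.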

The test system of series [4] is Human Pancreas Adenocarcinoma cell line, AsPC-1. Nature of the series: Relative cell viability CCK-8, AsPC-1. Particulars: 48 hours; for viability at 1 µM: ASPC1, 1 μM; for viability at 10 µM: ASPC1, 10 μM; for viability at 30 µM: ASPC1, 30 μM; for viability at 50 µM: ASPC1, 50 μM. On the procedure: as §1, §2, §3, §4, §5
For series [5], the system named is Human Colorectal Carcinoma cell line, HCT-116. Nature of the series: Relative cell viability CCK-8, HCT-116. Particulars: Homo sapiens, HCT-116, 48 hours. Here is the method:
as §1, §2, §3, §4, §5

Series [6] deals with Human Head and Neck cancer, Fadu. Put plainly: Relative cell viability CCK-8, Fadu. Particulars: Fadu cells, relative to untreated cells; for viability at 1 µM / viability at 10 µM / viability at 30 µM / viability at 50 µM: Homo sapiens, FaDu. Here is the method: Human-derived head and neck cancer cell line Fadu and osteosarcoma cell line Saos-2 were cultured in MEM medium containing 10% FBS, 100 U/mL penicillin, and 100 μg/mL streptomycin.
as §2, §3, §4, §5

Where [7] appears, read: 48 hours, untreated (DMSO) = 100%.
Where [8] appears, read: 1 μM, 48 hours, untreated (DMSO) = 100%.
Where [9] appears, read: 10 μM, 48 hours, untreated (DMSO) = 100%.
Setting [10] is: 30 μM, 48 hours, untreated (DMSO) = 100%.
[11] abbreviates: 50 μM, 48 hours, untreated (DMSO) = 100%.

For the compound `Nc1ncccc1C(=O)NCCCCCCCCCCCCN1CCSC1` [Compound 31, 2-Amino-N-(12-(thiazolidin-3-yl)dodecyl)nicotinamide], the viability (in general, the share of living cells, or the viability signal relative to a control) at 1 µM in series [1] is 7.59%; in series [3] (setting [7]) it was 5.57%; in series [4], 40.8%; in series [5] (1 μM), 11.6%. In addition, the viability at 10 µM in series [1] was found to be 7.06%; in series [3] (setting [7]), 4.36%; in series [4], 41%; in series [5] (10 μM), 13.2%. For the same compound, the viability at 30 µM is 7.58% in series [1], 1% in series [3] (setting [7]), 39.4% in series [4] and 12.3% in series [5] (30 μM). The viability at 50 µM in series [1] was found to be 6.92%; in series [3] (setting [7]), 0.23%; in series [4], 36.6%; in series [5] (50 μM), 12%. Further, in series [2] (compound 10 nM), the inhibition at 0.01 µM was found to be 8.01%. In addition, in series [2] (compound 100 nM), the inhibition at 0.1 µM was determined as 77.2%. Besides, the inhibition at 1 µM in series [2] (compound 1 μM) came out at 100%. For the same compound, the inhibition at 10 µM in series [2] (compound 10 μM) was 100%. Further, the inhibition at 30 µM in series [2] (compound 30 μM) amounted to 100%. Further, the inhibition at 50 µM in series [2] (compound 50 μM) came out at 100%.

`Cl.Nc1ncccc1C(=O)NCCCCCCCCCCCCN1CC[C@H](N)C1` [Compound 50, (S)-2-Amino-N-(12-(3-aminopyrrolidin-1-yl)dodecyl) nicotinamide hydrochloride]: the “Proliferation inhibition rate (%)” value is given as −7.48% in series [2] (compound 10 nM); 100.00% in series [2] (compound 100 nM); 100.00% in series [2] (compound 1 μM); 100.00% in series [2] (compound 10 μM); 100.00% in series [2] (compound 30 μM); 100.00% in series [2] (compound 50 μM). The “Relative cell viability (%), SU-DHL-8” value came to 9.20% in series [3] (setting [8]), 8.18% in series [3] (setting [9]), 6.18% in series [3] (setting [10]) and 4.31% in series [3] (setting [11]). Moreover, the “Relative cell viability (%)” value in series [6] (1 μM) came to 20.78%; in series [6] (10 μM), 26.55%; in series [6] (30 μM), 23.42%; in series [6] (50 μM), 7.05%.

In the case of `Nc1ncccc1C(=O)NCCCCCCCCCCCCN1CCC(O)CC1` [Compound 47, 2-Amino-N-(12-(4-hydroxypiperidin-1-yl)dodecyl)nicotinamide], the inhibition at 0.01 µM in series [2] (compound 10 nM) is -28.8%. In addition, in series [2] (compound 100 nM), the inhibition at 0.1 µM turned out to be 100%. In series [2] (compound 1 μM), the inhibition at 1 µM was found to be 100%. Further, the inhibition at 10 µM in series [2] (compound 10 μM) came out at 100%. In addition, the inhibition at 30 µM in series [2] (compound 30 μM) worked out at 100%. For the same compound, in series [2] (compound 50 μM), the inhibition at 50 µM was 100%. Also, the viability at 1 µM in series [3] (setting [7]) amounted to 11.7%; in series [6] (1 μM), 10%. Also, the viability at 10 µM is 10% in series [3] (setting [7]) and 19.9% in series [6] (10 μM). Also, the results for the viability at 30 µM in series [3] (setting [7]) and in series [6] (30 μM) were 9.4% and 7.34%, respectively. Also, the viability at 50 µM in series [3] (setting [7]) is 8.33%; in series [6] (50 μM), 5.02%.

With `CN(C)C1CCCCN(CCCCCCCCCCCCNC(=O)c2cccnc2N)C1` (stereo not shown) [Compound 45, 2-Amino-N-(12-(3-(dimethylamino)azepan-1-yl)dodecyl)nicotinamide], the viability at 1 µM is 9.91% in series [1], 1.91% in series [3] (setting [7]) and 29.8% in series [6] (1 μM). Besides, the viability at 10 µM in series [1] came to 11%; in series [3] (setting [7]) it was 1.27%; in series [6] (10 μM) it was 74.1%. The viability at 30 µM in series [1] was 9.95%; in series [3] (setting [7]) it was 0.53%; in series [6] (30 μM), 60%. Also, the viability at 50 µM in series [1] was determined as 9.04%; in series [6] (50 μM), 18.2%. In addition, in series [2] (compound 10 nM), the inhibition at 0.01 µM was 0.16%. The inhibition at 0.1 µM in series [2] (compound 100 nM) is 100%. Moreover, in series [2] (compound 1 μM), the inhibition at 1 µM came to 100%. Further, the inhibition at 10 µM in series [2] (compound 10 μM) came to 100%. In addition, in series [2] (compound 30 μM), the inhibition at 30 µM is 100%. Further, in series [2] (compound 50 μM), the inhibition at 50 µM was determined as 100%. Also, the “Relative cell viability (%), SU-DHL-8” value in series [3] (human, 48 h, 50 µM) is −1.31%.

In the case of `Nc1ncccc1C(=O)NCCCCCCCCCCCCN1CCC(c2ccc([N+](=O)[O-])cc2)CC1` [Compound 44, 2-Amino-N-(12-(4-(4-nitrophenyl)piperidin-1-yl)dodecyl)nicotinamide], the inhibition at 0.01 µM in series [2] (compound 10 nM) was -6.21%. In addition, the inhibition at 0.1 µM in series [2] (compound 100 nM) was 100%. In series [2] (compound 1 μM), the inhibition at 1 µM stood at 100%. The inhibition at 10 µM in series [2] (compound 10 μM) worked out at 100%. Moreover, the inhibition at 30 µM in series [2] (compound 30 μM) worked out at 100%. In addition, the inhibition at 50 µM in series [2] (compound 50 μM) was 100%. Also, the viability at 1 µM was 6.14% in series [3] (setting [7]) and 1.22% in series [6] (1 μM). Also, the viability at 10 µM in series [3] (setting [7]) turned out to be 4.91%; in series [6] (10 μM), 5.89%. Also, the viability at 30 µM in series [3] (setting [7]) turned out to be 2.54%; in series [6] (30 μM), 2.94%. Besides, the viability at 50 µM in series [3] (setting [7]) worked out at 1.41%.

`Nc1ncccc1C(=O)NCCCCCCCCCCCCN1CCN(CCO)CC1` [Compound 54, 2-Amino-N-(12-(4-(2-hydroxyethyl)piperazin-1-yl)dodecyl) nicotinamide]: the “Proliferation inhibition rate (%)” value is listed as −43.03% in series [2] (compound 10 nM); 100.00% in series [2] (compound 100 nM); 100.00% in series [2] (compound 1 μM); 100.00% in series [2] (compound 10 μM); 100.00% in series [2] (compound 30 μM); 100.00% in series [2] (compound 50 μM). For the same compound, the “Relative cell viability (%), SU-DHL-8” value amounted to 6.42% in series [3] (setting [8]), 4.05% in series [3] (setting [9]), 3.26% in series [3] (setting [10]) and 2.23% in series [3] (setting [11]). Also, the “Relative cell viability (%)” value in series [6] (1 μM) came to 24.97%; in series [6] (10 μM) it was 33.03%; in series [6] (30 μM) it was 32.41%; in series [6] (50 μM), 18.65%.

Regarding `Nc1ncccc1C(=O)NCCCCCCCCCCCCN1CCc2ccccc21` [Compound 89, 2-Amino-N-(12-(indolin-1-yl)dodecyl)nicotinamide], in series [2] (compound 10 nM), the inhibition at 0.01 µM is -3.34%. Also, the inhibition at 0.1 µM in series [2] (compound 100 nM) came to 100%. Moreover, the inhibition at 1 µM in series [2] (compound 1 μM) is 100%. Also, the inhibition at 10 µM in series [2] (compound 10 μM) is 100%. In addition, the inhibition at 30 µM in series [2] (compound 30 μM) was found to be 100%. Besides, in series [2] (compound 50 μM), the inhibition at 50 µM was 100%. Moreover, in series [3] (setting [7]), the viability at 1 µM worked out at 1.33%, the viability at 10 µM stood at 0.82% and the viability at 30 µM was 0.48%. In addition, the “Relative cell viability (%), SU-DHL-8” value in series [3] (human, 48 h, 50 µM) is on record as −0.86%. In addition, in series [4], the viability at 1 µM was 30.3%, the viability at 10 µM was 19.2%, the viability at 30 µM was 17.8% and the viability at 50 µM worked out at 17.8%.
